Measurements as given in ChEMBL document CHEMBL1201862, “PubChem BioAssay data set” (2004).
Activity calls are given as the source filed them.

How the values were obtained:
[1] = biological target: Sphingosine 1-phosphate receptor 2 (Homo sapiens, UniProt O95136); test: Dose Response Cell Based Assay for Antagonists of the S1P2 Receptor. [Related pubchem assays: 856, 736 ]; assay type: functional
[2] = biological target: Caspase-6 (Homo sapiens, UniProt P55212); test: human caspase-6 inhibitors, dose response, biochemical, VEID-R110 fluorescence, cherry-pick (AID 720632)
[3] = Luminescence-based cell-based high throughput dose response assay to identify activators of the DAF-12 from the parasite S. stercoralis (ssDAF-12).; assay type: functional
[4] = biological target: T1, Oxysterols receptor LXR-beta (Homo sapiens, UniProt P55055); test: LXR agonists, Gal4 luciferase reporter, dose response, counter-screen for ssDAF-12 agonist project, cell-based, luminescence, HEK293, S. stercoralis campaign (AID 720737); assay type: functional; details: read-out: IC50 (the source's name)
T1 sequence (P55055 whole entry): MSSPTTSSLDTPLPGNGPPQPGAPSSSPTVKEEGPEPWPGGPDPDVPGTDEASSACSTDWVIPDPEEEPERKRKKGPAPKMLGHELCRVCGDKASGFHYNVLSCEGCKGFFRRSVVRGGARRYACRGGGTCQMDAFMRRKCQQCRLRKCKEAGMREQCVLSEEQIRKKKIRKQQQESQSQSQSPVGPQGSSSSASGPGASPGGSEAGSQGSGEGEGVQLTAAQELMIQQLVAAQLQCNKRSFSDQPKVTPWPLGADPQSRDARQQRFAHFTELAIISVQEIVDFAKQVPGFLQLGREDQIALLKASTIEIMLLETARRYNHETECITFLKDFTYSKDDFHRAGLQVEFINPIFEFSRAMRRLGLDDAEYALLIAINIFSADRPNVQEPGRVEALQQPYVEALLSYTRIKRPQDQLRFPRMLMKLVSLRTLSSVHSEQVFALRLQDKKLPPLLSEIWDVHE

[5] = HEK293 cell cytotoxicity, dose response, cytotoxicity control, plate reader, cherry-picked samples (AID 743446); assay type: functional, cell-based
[6] = MC4R antagonists, dose response, counter-screen for LGR2 antagonist project, cell-based, plate reader, cherry pick (AID 743444); assay type: functional;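 further: transfected HEK 293 cells stimulated with alpha-MSH peptide; potency of inhibitors of the alpha-MSH evoked signal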
[7] = LGR2 antagonists, dose response, cell-based, HEK293, CRE-luciferase reporter, cherry pick, set 2 (AID 743343); assay type: functional;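 further: transfected cells were stimulated with diluted bursicon conditioned medium after compound addition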
[8] = cytotoxicity in OVCAR8 ovarian cancer cells, dose response, PAX8 project, cell-based, plate reader, dry powder samples (AID 743197); assay type: functional; details: OVCAR-8
[9] = biological target: T2, Adenosylmethionine-8-amino-7-oxononanoate aminotransferase (Mycobacterium tuberculosis, UniProt P9WQ81); test: Mycobacterium tuberculosis BioA enzyme inhibitor Measured in Biochemical System Using Plate Reader - 2163-02_Inhibitor_Dose_CherryPick_Activity.; assay type: functional, Mycobacterium tuberculosis UT205
T2 sequence (P9WQ81 whole entry): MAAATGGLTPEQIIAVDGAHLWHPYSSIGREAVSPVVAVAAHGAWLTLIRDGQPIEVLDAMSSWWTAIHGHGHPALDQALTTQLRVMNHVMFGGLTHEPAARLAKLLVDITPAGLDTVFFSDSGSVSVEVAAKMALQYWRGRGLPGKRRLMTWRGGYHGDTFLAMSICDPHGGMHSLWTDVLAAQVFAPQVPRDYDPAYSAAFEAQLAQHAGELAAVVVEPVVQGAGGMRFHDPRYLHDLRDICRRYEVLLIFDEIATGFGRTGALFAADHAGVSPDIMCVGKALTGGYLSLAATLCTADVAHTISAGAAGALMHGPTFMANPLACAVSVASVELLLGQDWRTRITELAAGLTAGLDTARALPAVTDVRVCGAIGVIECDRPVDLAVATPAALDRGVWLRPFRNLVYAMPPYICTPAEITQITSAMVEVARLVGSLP

[10] = biological target: Paired box protein Pax-8 (Homo sapiens, UniProt Q06710); test: inhibitors of PAX8-driven TPO luciferase reporter, dose response, RMG-I cells, cherry-pick (AID 687027); assay type: functional, cell-based;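 further: luciferase reporter driven by Pax8 target thyroperoxidase promoter measured by SteadyGlo luminescence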
[11] = IGROV1 ovarian cancer cell cytotoxicity, dose response, PAX8 inhibitor project, plate reader, dry powder samples (AID 743043); assay type: functional, cell-based; details: IGROV-1
[12] = NIH:OVCAR-3 ovarian cancer cell cytotoxicity, dose response, PAX8 inhibitor project, plate reader, dry powder samples (AID 743044); assay type: functional, cell-based
[13] = HeLa 2N DNA content increase, dose response, cell-based, IC50 (AID 1117349); assay type: functional
[14] = HeLa 4N DNA content increase, dose response, cell-based, IC50 (AID 1117351); assay type: functional
[15] = HepG2 cell cytotoxicity, dose response, cytotoxicity control, cherry-picked samples (AID 1159577); assay type: functional, cell-based
[16] = P. falciparum Dd2 growth inhibitors, dose response, SYBR Green, dry powder samples (AID 1159566); assay type: functional, cell-based;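 further: potency for growth inhibition with lower SYBR green DNA signal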
[17] = HepG2 cell cytotoxicity, dose response, cytotoxicity control, plate reader, dry powder samples (AID 1159569); assay type: functional, cell-based;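 further: inhibitor potency with signal falling toward the positive control level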
[18] = P. falciparum ATP4 D1247Y mutant growth inhibitors, dose response, NITD609-resistant line, SYBR Green, dry powder (AID 1159571); assay type: functional, cell-based;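 further: parasites synchronized at ring stage by sorbitol before testing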
[19] = P. falciparum 3D7-ScDHODH growth inhibitors, dose response, SYBR Green, dry powder samples (AID 1159570); assay type: functional, cell-based;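 further: parasite growth measured after 72 hours of compound exposure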
[20] = P. falciparum Dd2 growth inhibitors, dose response, SYBR Green, cherry-picked samples (AID 1159567); assay type: functional, cell-based
[21] = HCT116 cell viability decrease, GSK3B pretreatment – CellTiter-Glo, IC50, dose response (AID 1117339); assay type: functional; details: HCT-116
[22] = Concentration-dependent survival of SW480 colon cancer line, luminescence detection with CellTiter-Glo, half-maximal inhibitory concentration (AID 1117338); assay type: functional
[23] = cytotoxicity toward HT-29 cells – cell-based, CellTiter-Glo luminescence, IC50, dose response (AID 1117330); assay type: functional
[24] = cytotoxicity toward HCT116 cells – cell-based, CellTiter-Glo luminescence, IC50, dose response (AID 1117332); assay type: functional; details: HCT-116
[25] = cytotoxicity toward Colo320 cells – cell-based, CellTiter-Glo luminescence, IC50, dose response (AID 1117334); assay type: functional; details: COLO 320
[26] = CellTiter-Glo luminescent dose response of DLD-1 viability loss (AID 1117352); assay type: functional
[27] = RKO cell viability reduction, dose response, CellTiter-Glo luminescence (AID 1117322); assay type: functional
[28] = SNU-C1 cell viability reduction, dose response, CellTiter-Glo luminescence (AID 1117323); assay type: functional, cell-based
[29] = tested on: P388/ADR; test: cells; assay type: functional; details: Mus musculus
[30] = tested on: P388; test: cells; assay type: functional; details: Mus musculus
[31] = tested on: SN12K1; test: cells; assay type: functional; details: Homo sapiens

Chain of Caspase-6 (P55212 24-179 limits assumed): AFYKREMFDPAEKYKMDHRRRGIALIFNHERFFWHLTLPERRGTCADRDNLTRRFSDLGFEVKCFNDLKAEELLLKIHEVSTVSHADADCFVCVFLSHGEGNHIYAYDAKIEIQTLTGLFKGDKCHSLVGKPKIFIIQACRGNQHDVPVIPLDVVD
Chain of Caspase-6 (P55212 194-293 limits assumed): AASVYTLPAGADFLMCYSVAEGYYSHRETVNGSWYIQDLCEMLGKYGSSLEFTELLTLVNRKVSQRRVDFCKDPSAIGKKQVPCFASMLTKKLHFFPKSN
Chain of Paired box protein Pax-8 (Q06710 whole entry): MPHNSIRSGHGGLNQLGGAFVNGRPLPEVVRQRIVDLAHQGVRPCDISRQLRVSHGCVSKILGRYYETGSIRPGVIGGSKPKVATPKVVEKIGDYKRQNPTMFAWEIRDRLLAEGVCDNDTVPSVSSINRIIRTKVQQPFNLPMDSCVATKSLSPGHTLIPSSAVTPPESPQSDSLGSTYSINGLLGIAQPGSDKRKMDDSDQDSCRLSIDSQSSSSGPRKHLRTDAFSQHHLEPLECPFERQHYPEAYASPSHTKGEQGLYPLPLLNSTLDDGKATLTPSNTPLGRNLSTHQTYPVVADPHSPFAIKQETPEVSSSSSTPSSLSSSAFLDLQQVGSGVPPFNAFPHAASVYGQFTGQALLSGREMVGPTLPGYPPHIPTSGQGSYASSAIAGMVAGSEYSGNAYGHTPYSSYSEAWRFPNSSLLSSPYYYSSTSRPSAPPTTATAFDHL
Chain of Sphingosine 1-phosphate receptor 2 (O95136 whole entry): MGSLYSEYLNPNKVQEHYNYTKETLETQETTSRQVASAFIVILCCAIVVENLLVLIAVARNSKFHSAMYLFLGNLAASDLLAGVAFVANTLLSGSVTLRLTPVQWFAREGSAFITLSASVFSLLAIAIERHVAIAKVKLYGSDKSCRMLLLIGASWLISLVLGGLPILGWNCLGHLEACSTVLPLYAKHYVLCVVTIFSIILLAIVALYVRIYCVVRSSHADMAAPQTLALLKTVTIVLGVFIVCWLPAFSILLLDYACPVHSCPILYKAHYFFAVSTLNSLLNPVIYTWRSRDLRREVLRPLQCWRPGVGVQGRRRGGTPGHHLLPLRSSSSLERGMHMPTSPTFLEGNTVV

For `O=C(c1sc2cc(C(F)(F)F)cnc2c1-c1ccccc1)N1CCOCC1`, the IC50 [1] was > 30 µM (not active).

With `O=Cc1ccc(Oc2nc(Cl)ncc2F)cc1` the AC50 [2] was 9.13 µM (active).

With `O=C(Cc1c[nH]c2ccccc12)NNCc1ccc(N(CCCl)CCCl)cc1` the IC50 [3] was > 67.5 µM (inactive) and the EC50 [4] was > 67.5 µM (inactive).

In the case of `CC(C)N(C)c1ncnc2c1ncn2[C@H]1CN(Cc2cccnc2)C[C@@H](CO)O1`, the IC50 [3] is reported as > 67.5 µM (inactive) and the EC50 [4] is reported as > 67.5 µM (inactive).

In the case of `FC(F)(F)c1cccc(CC2CN(Cc3ccccc3)Cc3ccccc3N2c2cc(Cl)cc(Cl)c2)c1` (centres undefined), the AC50 [5] is reported as > 52 µM (inactive), the AC50 [6] is reported as 12.5 µM (active) and the AC50 [7] is reported as 22.2 µM (active).

With `COc1ccc(-c2ccc3c(c2)[C@H]2[C@H](CCN2C(=O)Cc2cccnc2)[C@H](CO)N3C)cc1` the AC50 [8] was > 70 µM (inactive) and the AC50 [9] was 1.57 µM (active).

In the case of `C[C@@H]1CCCCO[C@H](CN(C)Cc2ccc(C(F)(F)F)cc2)[C@@H](C)CN([C@@H](C)CO)C(=O)c2cc(NC(=O)Cc3ccccc3)ccc2O1`, the AC50 [10] is reported as 9.25 µM (active), the AC50 [11] is reported as 64.6 µM (active) and the AC50 [12] is reported as 35.2 µM (active).

For `CCCCCCCCCCOCC(O)CN` (centres undefined), the IC50 [13] was > 10 µM (inactive) and the IC50 [14] was > 10 µM (inactive).

With `COc1ccccc1NC(=O)N1CCCCN2[C@H](CO)[C@H](c3ccc(C#CC4CC4)cc3)[C@H]2C1` the AC50 [15] was 20.3 µM (active), the AC50 [16] was 1.2 µM (active) and the AC50 [17] was 18.4 µM (active). The AC50 [18] was 1.74 µM (active), the AC50 [19] was 1.74 µM (active) and the AC50 [20] was 2.69 µM (active).

In the case of `C/C=C/c1ccc([C@H]2[C@@H](CO)N(c3nc(C)c(C)s3)[C@@H]2CNCC(C)C)cc1`, the AC50 [15] is reported as > 39 µM (inactive), the AC50 [16] is reported as 0.227 µM (active) and the AC50 [17] is reported as 44.1 µM (active). For the same molecule, the AC50 [18] was 0.473 µM (active), the AC50 [19] was 0.915 µM (active) and the AC50 [20] was 0.861 µM (active).

In the case of `Cc1cccc(C)c1NC(=O)CC12CCCN1CCC2` [PILSICAINIDE], the IC50 [21] is reported as > 20 µM (inactive), the IC50 [22] is reported as > 20 µM (inactive) and the IC50 [23] is reported as > 20 µM (inactive). For the same molecule, the IC50 [24] was > 20 µM (inactive), the IC50 [25] was > 20 µM (inactive) and the IC50 [26] was > 20 µM (inactive). The IC50 [27] was > 20 µM (inactive) and the IC50 [28] was > 20 µM (inactive).

For `OC[C@H]1O[C@@H](n2cnc3c(S)ncnc32)[C@H](O)[C@@H]1O` [THIOINOSINE], the IC50 [21] was 0.504 µM (active), the IC50 [22] was 0.0287 µM (active) and the GI50 [29] was 1140 µM (inactive). For the same molecule, the IC50 [23] was 0.118 µM (active), the GI50 [30] was 1240 µM (inactive) and the IC50 [24] was 0.0286 µM (active). For the same molecule, the IC50 [13] was > 10 µM (inactive), the GI50 [31] was 1780 µM (inactive) and the IC50 [25] was 1.06 µM (active). The IC50 [14] was > 10 µM (inactive), the IC50 [26] was 0.063 µM (active) and the IC50 [27] was 0.0144 µM (active). For the same molecule, the IC50 [28] was 2.19 µM (active).
